Results: ChEMBL document CHEMBL1201862, “PubChem BioAssay data set” (2004)
Calls of active or inactive are those of the source.

Columns and labels:
[1] = biological target: T1, Lysine-specific demethylase 4C (Homo sapiens, UniProt Q9H3R0); test: inhibition of JMJD2C H3K9me3 demethylation – biochemical, DELFIA europium, cherry-picked samples, dose response (AID 488835); format: functional
T1 sequence (Q9H3R0 whole entry): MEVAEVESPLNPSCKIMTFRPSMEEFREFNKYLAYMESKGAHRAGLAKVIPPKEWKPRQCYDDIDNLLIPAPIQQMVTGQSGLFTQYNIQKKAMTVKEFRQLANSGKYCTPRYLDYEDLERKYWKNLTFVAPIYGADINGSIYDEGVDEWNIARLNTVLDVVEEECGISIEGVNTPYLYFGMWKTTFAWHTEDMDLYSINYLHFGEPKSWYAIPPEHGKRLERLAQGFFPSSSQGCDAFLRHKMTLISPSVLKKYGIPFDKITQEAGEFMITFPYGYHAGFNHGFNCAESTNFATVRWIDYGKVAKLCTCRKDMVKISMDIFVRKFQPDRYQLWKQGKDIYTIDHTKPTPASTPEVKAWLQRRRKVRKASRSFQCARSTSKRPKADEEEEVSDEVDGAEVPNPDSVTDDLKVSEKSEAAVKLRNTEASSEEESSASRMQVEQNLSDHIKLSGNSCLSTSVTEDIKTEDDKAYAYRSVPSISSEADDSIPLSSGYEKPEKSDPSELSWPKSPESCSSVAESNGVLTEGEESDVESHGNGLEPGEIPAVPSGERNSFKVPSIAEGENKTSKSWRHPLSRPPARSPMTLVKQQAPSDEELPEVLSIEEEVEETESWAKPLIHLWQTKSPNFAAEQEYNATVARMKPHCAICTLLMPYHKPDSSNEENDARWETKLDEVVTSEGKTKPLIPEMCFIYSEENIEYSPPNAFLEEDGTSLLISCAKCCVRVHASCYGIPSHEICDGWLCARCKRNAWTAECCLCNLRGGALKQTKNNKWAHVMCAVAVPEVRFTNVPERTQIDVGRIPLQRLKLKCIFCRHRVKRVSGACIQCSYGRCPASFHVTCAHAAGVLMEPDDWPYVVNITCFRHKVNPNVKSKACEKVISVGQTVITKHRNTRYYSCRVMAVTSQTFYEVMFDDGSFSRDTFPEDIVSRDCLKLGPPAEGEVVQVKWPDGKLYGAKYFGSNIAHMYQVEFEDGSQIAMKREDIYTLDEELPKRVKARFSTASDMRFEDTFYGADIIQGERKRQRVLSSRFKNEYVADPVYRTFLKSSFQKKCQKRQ

[2] = biological target: Alkaline phosphatase, placental type (Homo sapiens, UniProt P05187); test: human placental alkaline phosphatase inhibition – biochemical, luminescence, confirmation (AID 1512); format: functional
Chain of Alkaline phosphatase, placental type (P05187 whole entry): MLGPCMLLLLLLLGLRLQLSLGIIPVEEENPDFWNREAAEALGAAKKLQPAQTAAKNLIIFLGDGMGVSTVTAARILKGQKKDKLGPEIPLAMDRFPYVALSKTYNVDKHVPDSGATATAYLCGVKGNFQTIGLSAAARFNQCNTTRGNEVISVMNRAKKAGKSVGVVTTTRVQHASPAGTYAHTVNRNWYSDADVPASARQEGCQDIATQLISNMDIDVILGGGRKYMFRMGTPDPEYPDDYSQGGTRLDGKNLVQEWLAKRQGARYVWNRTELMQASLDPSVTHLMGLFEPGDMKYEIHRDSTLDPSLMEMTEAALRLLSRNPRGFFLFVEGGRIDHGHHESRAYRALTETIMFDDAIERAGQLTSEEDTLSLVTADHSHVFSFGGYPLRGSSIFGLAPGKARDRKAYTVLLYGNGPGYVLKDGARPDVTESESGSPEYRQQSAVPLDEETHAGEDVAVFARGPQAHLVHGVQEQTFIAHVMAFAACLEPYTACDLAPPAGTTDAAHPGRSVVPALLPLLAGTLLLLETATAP

[3] = biological target: T2, Alkaline phosphatase, tissue-nonspecific isozyme (Homo sapiens, UniProt P05186); test: potency against alkaline phosphatase TNAP – biochemical, luminescent, dose response, SAR follow-up (AID 1056)
T2 sequence (P05186 whole entry): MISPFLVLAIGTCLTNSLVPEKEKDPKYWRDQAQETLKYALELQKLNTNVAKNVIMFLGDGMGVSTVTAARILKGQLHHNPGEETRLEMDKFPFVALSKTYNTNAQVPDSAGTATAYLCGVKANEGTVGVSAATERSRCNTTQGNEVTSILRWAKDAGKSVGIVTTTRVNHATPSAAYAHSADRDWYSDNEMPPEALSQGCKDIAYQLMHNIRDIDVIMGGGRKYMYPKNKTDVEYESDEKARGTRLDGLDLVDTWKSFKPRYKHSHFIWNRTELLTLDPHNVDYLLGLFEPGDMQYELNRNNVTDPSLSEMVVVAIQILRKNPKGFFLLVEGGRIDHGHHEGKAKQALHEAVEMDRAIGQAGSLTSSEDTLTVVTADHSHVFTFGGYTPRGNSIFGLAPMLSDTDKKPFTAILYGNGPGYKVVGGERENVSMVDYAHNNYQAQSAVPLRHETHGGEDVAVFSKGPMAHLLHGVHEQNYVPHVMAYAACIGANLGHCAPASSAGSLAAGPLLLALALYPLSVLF

HEK293 [4] = test: cells; conditions: Homo sapiens
HEK293 [5] = test: cells; conditions: Homo sapiens; remark: listed apart in the source
[6] = biological target: DNA dC->dU-editing enzyme APOBEC-3A (Homo sapiens, UniProt P31941); test: Dose Response confirmation of small molecule APOBEC3A DNA Deaminase Inhibitors via a fluorescence-based single-stranded DNA deaminase assay. [Related pubchem assays (depositor defined):AID493011, AID493024]; format: functional
Chain of DNA dC->dU-editing enzyme APOBEC-3A (P31941 whole entry): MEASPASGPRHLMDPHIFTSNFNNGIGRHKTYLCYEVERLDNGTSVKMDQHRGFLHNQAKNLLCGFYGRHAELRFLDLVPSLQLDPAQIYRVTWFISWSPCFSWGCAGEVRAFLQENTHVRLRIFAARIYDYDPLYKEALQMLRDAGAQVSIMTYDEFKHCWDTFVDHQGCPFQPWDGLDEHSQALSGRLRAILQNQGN

[7] = biological target: DNA dC->dU-editing enzyme APOBEC-3G (Homo sapiens, UniProt Q9HC16); format: functional;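 note: Dose-response counterscreen measuring inhibition of APOBEC3G DNA deaminase activity, run while confirming APOBEC3A inhibitors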
Chain of DNA dC->dU-editing enzyme APOBEC-3G (Q9HC16 whole entry): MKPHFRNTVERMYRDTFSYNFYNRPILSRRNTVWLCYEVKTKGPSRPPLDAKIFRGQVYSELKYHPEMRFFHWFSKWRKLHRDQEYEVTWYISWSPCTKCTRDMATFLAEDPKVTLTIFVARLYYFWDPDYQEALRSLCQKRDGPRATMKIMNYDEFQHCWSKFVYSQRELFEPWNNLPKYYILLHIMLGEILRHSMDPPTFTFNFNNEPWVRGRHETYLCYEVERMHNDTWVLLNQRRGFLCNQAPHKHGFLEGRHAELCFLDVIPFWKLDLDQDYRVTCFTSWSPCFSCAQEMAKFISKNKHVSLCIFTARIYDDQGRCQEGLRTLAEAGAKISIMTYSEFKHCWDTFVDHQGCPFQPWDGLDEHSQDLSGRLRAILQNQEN

Cytochrome P450 2C19 = Cytochrome P450 2C19 (Homo sapiens, UniProt P33261); test: Cytochrome panel assay with activity outcomes. Panel member name: p450-cyp2c19 Compounds with AC50 equal or less than 10 uM are considered active; format: functional; conditions: read-out: AC50
Chain of Cytochrome P450 2C19 (P33261 whole entry): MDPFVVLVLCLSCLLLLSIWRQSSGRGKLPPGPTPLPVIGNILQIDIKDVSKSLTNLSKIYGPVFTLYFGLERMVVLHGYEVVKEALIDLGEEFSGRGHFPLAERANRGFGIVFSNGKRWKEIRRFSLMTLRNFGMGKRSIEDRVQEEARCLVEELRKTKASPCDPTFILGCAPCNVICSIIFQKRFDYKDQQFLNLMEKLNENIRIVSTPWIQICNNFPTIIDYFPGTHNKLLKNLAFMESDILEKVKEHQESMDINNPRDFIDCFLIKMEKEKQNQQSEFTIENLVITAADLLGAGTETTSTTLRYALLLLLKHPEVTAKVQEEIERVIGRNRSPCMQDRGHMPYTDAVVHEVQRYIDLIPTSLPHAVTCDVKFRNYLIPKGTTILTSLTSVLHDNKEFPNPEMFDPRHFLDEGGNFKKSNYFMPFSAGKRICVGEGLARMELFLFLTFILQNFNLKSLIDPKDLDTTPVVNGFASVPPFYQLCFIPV

[8] = viability of PTEN-deleted HCT116 cells – cell-based, HCT116 PTEN knockout, dose response (AID 1047); format: functional;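 note: HCT116 colon tumor cells with PTEN knocked out; cells exposed to compound for 60 hours before readout; potency for loss of cell viability measured by luminescence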
[9] = viability of HCT116 lacking mutant beta-catenin – cell-based, human colon tumor, dose response (AID 1045); format: functional;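 note: HCT116 colon tumor cells with beta catenin knocked out; cells exposed to compound for 60 hours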
Ion channel NompC = Ion channel NompC (Danio rerio, UniProt Q7T1G6); test: Dose response cell-based high-throughput screening assay for agonists of the transient receptor potential channel N1 (TRPN1). [Related pubchem assays (depositor defined):AID1424, AID1448]; format: functional
Chain of Ion channel NompC (Q7T1G6 whole entry): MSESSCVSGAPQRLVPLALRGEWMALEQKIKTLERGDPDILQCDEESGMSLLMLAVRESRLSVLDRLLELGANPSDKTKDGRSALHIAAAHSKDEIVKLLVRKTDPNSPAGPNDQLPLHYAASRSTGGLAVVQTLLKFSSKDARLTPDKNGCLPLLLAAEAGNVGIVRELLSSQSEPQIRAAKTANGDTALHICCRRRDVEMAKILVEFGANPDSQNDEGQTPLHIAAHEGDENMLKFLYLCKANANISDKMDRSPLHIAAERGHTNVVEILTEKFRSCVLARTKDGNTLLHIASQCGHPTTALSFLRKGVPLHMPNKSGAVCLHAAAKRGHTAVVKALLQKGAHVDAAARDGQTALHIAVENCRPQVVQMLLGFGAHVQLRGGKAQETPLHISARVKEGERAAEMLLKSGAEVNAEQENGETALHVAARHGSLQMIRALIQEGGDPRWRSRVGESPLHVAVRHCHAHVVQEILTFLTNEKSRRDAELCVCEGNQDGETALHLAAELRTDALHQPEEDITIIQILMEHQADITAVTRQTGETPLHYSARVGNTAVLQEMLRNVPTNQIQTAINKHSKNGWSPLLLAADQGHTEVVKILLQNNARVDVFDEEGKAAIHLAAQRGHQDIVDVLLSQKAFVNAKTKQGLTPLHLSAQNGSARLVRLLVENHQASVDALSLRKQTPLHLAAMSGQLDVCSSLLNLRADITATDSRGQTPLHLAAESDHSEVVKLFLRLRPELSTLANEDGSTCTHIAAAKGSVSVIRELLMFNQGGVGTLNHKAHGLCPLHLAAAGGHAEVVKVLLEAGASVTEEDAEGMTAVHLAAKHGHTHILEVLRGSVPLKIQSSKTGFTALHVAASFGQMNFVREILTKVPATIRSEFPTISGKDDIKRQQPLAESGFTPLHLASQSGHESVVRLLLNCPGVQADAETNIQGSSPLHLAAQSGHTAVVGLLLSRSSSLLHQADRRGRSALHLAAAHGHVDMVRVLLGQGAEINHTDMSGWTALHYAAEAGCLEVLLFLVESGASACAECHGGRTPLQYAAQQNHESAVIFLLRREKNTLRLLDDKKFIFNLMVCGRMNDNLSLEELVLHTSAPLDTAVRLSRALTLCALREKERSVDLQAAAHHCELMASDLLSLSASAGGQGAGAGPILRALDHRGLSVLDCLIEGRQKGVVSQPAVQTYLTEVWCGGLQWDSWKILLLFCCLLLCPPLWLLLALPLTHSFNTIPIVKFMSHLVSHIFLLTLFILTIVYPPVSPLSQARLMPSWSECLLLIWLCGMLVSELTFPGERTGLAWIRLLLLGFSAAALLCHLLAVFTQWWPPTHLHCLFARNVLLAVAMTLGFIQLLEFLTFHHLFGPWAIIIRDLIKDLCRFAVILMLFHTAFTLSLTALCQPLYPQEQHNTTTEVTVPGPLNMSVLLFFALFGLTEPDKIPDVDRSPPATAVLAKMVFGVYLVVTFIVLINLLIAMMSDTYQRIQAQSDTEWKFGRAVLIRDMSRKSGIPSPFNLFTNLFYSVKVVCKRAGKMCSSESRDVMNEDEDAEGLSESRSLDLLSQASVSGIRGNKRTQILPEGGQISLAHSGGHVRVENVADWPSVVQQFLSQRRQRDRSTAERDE

Mucolipin-3 = biological target: T3, Mucolipin-3 (Homo sapiens, UniProt Q8TDD5); test: Fluorescence counterscreen assay for […] agonists: dose response cell-based high-throughput screening assay to identify agonists of the transient receptor potential channel ML3 (TRPML3). [Related pubchem assays: 1424, 1448 ]; format: functional
T3 sequence (Q8TDD5 whole entry): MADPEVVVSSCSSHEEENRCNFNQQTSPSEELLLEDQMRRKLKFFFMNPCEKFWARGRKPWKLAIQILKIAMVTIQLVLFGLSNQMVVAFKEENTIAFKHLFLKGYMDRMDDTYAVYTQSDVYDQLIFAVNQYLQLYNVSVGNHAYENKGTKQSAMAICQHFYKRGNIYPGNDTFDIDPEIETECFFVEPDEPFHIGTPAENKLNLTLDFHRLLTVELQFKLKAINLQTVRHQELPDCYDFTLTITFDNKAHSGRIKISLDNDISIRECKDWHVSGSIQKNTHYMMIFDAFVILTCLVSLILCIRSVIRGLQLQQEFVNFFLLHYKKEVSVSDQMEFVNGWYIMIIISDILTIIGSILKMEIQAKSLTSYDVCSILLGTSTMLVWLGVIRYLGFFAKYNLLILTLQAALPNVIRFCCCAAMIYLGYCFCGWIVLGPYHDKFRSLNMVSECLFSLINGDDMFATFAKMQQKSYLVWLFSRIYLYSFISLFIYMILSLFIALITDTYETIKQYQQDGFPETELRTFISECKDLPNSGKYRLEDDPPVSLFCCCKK

[10] = biological target: T4, Corticotropin-releasing factor receptor 2/Corticotropin-releasing factor-binding protein (Homo sapiens, UniProt P24387+Q13324); test: activators of CRF receptor 2 with binding protein – uHTS hits, confirmation (AID 602473); format: functional; conditions: read-out: EC50_Mean
T4 sequence (Q13324 whole entry): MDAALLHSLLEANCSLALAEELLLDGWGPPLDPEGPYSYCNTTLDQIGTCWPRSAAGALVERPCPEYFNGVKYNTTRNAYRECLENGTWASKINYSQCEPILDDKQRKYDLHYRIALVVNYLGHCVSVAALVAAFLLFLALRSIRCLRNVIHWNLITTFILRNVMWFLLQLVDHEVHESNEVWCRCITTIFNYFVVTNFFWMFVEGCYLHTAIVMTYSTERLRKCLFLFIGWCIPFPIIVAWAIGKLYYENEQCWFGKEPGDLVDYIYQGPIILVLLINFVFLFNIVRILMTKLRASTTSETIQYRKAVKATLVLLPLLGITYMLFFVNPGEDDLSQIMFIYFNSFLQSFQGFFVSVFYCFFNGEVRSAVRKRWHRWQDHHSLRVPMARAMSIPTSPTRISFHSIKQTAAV
T4 sequence (P24387 whole entry): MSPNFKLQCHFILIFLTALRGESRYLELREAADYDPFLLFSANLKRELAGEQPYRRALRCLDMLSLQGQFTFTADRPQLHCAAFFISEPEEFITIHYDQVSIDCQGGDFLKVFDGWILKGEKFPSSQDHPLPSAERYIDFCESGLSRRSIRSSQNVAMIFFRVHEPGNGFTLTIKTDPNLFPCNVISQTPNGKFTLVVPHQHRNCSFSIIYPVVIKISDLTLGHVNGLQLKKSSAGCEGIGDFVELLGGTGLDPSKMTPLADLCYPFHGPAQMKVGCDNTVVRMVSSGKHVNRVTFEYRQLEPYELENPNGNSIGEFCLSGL

Large T antigen = Large T antigen (Simian virus 40, UniProt P03070); format: functional, Betapolyomavirus macacae;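 note: Confirmatory-stage PubChem screen for compounds that inhibit SV40 T antigen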
Chain of Large T antigen (P03070 whole entry): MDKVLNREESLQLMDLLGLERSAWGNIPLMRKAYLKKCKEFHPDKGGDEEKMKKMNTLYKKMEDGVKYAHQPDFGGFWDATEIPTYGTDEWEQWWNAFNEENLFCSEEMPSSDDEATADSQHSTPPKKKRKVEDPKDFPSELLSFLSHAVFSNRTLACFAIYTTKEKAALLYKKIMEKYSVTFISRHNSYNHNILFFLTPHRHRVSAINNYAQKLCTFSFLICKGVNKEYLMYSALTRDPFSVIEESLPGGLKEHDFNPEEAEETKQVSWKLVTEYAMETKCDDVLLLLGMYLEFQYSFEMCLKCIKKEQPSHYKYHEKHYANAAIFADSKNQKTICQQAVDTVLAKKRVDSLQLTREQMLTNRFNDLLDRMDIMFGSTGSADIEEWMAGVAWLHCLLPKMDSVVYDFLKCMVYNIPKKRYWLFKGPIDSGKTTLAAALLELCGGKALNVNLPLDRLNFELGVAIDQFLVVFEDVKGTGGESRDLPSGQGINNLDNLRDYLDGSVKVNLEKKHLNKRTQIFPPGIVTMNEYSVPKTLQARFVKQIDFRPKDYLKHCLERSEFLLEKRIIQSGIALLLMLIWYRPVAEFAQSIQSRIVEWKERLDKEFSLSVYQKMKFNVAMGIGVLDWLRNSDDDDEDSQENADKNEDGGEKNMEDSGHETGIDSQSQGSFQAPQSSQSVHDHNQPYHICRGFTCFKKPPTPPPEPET

Leucine aminopeptidase = biological target: T5, Leucine aminopeptidase (Plasmodium falciparum 3D7, UniProt Q8IL11); test: P. falciparum M17LAP inhibitors, primary screen, biochemical, fluorogenic H-Leu-NHMec substrate, 1536-well (AID 1619); format: functional
T5 sequence (Q8IL11 whole entry): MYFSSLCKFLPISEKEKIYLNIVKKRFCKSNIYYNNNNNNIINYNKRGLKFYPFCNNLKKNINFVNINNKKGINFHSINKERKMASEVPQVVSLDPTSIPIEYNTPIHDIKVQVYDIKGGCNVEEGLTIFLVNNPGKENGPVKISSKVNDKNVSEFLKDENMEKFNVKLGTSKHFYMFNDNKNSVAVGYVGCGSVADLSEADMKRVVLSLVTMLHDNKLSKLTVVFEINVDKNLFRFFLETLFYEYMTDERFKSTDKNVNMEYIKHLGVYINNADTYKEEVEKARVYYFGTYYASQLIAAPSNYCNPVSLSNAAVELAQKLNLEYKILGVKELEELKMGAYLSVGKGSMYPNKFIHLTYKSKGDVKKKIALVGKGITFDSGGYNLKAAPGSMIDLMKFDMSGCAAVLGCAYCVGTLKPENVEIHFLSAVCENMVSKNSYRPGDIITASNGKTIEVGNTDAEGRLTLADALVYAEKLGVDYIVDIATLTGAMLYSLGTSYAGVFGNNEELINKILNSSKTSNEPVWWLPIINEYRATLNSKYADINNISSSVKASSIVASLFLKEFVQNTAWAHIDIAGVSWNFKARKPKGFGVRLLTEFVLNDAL

[11] = biological target: T6, Bifunctional protein GlmU (Mycobacterium tuberculosis, UniProt P9WMN3); test: Inhibitors of Mycobacterial Glucosamine-1-phosphate acetyl transferase (GlmU). Secondary screen.; design: species or system Mycobacterium tuberculosis H37Rv
T6 sequence (P9WMN3 whole entry): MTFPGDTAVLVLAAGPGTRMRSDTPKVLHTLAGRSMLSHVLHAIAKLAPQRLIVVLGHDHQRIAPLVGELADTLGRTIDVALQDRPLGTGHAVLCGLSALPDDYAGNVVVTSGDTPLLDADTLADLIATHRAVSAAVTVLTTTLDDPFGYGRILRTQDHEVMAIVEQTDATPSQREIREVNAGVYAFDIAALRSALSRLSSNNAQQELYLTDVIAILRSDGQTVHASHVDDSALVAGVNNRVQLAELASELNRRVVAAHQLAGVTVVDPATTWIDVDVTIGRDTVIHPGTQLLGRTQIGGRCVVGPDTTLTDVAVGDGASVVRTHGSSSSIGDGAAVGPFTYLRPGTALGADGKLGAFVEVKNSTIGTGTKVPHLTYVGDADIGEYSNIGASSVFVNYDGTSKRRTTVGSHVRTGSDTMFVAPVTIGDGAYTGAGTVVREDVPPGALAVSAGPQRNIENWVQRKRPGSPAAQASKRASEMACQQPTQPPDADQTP

With CN1C(=O)N(C)C(=O)C2(Sc3ccccc3C2=O)C1=O the AC50 [1] was 11.2 µM (active).

For CCCCN1C(=O)/C(=N\Nc2ccccc2C)c2ccccc21, the IC50 [2] was 74.4 µM (active) and the IC50 [3] was 78 µM (active).

In the case of CCCCCn1/c(=N/C(=O)c2ccco2)c(C(=O)OCC)cc2c(=O)n3ccccc3nc21, the EC50 (HEK293 [4]) is reported as > 59.6 µM (inactive) and the EC50 (HEK293 [5]) is reported as > 59.6 µM (inactive).

In the case of Cc1ccc(C)c(NC(=O)c2nc[nH]n2)c1, the IC50 [6] is reported as 11.6 µM (active), the IC50 [7] is reported as 14.1 µM (active) and the AC50 (Cytochrome P450 2C19) is reported as 39.8 µM (inconclusive).

For COc1ccccc1N(CC(=O)Nc1ccc2c(c1)OCO2)S(=O)(=O)c1ccccc1, the IC50 [6] was 2.01 µM (active) and the IC50 [7] was 1.81 µM (active).

In the case of COc1ccc(Br)cc1CN(C)C(=O)C1=CC=CN2CCS(=O)(=O)N=C12, the IC50 [6] is reported as 20.2 µM (active) and the IC50 [7] is reported as 48.3 µM (active).

In the case of O=C(Nc1ccccc1)Nc1ccc(F)c([N+](=O)[O-])c1, the EC50 [8] is reported as 15.2 µM (active), the EC50 [9] is reported as 18.1 µM (active) and the EC50 (Ion channel NompC) is reported as > 29.9 µM (inactive). The EC50 (Mucolipin-3) was > 29.9 µM (not active).

In the case of NC(S)=NNC(=O)C12CC3CC(CC(C3)C1)C2, the EC50 (Ion channel NompC) is reported as 1.47 µM (active), the EC50 (Mucolipin-3) is reported as 2.76 µM (active) and the EC50 [10] is reported as 3.53 µM (active).

For CCn1c(SCC(=O)c2ccc(O)c(O)c2)nnc1-c1ccc(C)cc1, the IC50 (Large T antigen) was 10.4 µM (active), the IC50 [2] was 11.8 µM (active) and the IC50 (Leucine aminopeptidase) was 17.9 µM (active). For the same molecule, the IC50 [3] was > 100 µM (inactive).

With Cc1cccc(N2C(=O)NC(=O)/C(=C/c3ccc([N+](=O)[O-])o3)C2=O)c1 the AC50 [1] was 5.37 µM (active) and the IC50 [11] was 149 µM (active).

For N#Cc1c(N)n(C2CCCCC2)c2nc3ccccc3nc12, the EC50 (HEK293 [4]) was > 59.6 µM (inactive) and the EC50 (HEK293 [5]) was > 59.6 µM (inactive).
